In US20220409581A1, “METHODS AND COMPOSITIONS FOR TREATMENT OF SOLID TUMORS USING F16 ISOINDOLE SMALL MOLECULES” (Nova Southeastern University, priority 2019, published 2022):
Entries after “also recorded” stand apart in the source; their conditions may differ.

Columns and labels:
recurrent GBM = conditions: cited from earlier work
U87MG cells [1] = assay: MTT cytotoxicity assay; type: cell-based; conditions: Homo sapiens, U-87 MG, 24 h, read-out: IC50 (50% reduction of U87MG cell viability)
Protocol: The cell viability was assessed using a 3-(4,5-dimethylthiazol-2-yl)-2, 5-diphenyltetrazolium bromide (MTT) assay (Sigma-Aldrich, St. Louis, Mo., USA), and trypan blue dye exclusion method (TBDE). For the MTT assay, U87MG cells were cultured in a 96 well-plate at a density of 5×10^3 per well and incubated at 37° C. under 5% CO2 for 24 h. Then, the cells were treated with different concentrations of F16 (0.1-100 μM) and TMZ (0.1-500 μM) for 24 h. At the end of treatment, the old medium was aspirated, and 10 μL of MTT (0.5 mg/mL in PBS) was added to each well and the cells were incubated at 37° C. for an additional 3 h. Finally, the MTT solution was removed, and 100 μL of dimethyl sulfoxide (DMSO) was added to each well. The plate was gently rotated on an orbital shaker for 10 min to completely dissolve the precipitation and the absorbance was measured at 570 nm using Microplate Reader (VersaMax, Molecular Devices, Sunnyvale, Calif., USA). For the TBDE method, U87MG cells were cultured in a 24 well-plate at a density of 5×10^4 per well and incubated at 37° C. under 5% CO2 for 48 h. Then, the cells were treated with different concentrations of F16 (0.1-100 μM) and TMZ (10-1000 μM). […] The viable cells were counted with a Bio-Rad TC20™ Automated Cell Counter (Hercules, Calif., USA)

U87MG cells [2] = assay: Trypan blue dye exclusion method (TBDE); type: cell-based, human; conditions: F16 100 μM, TMZ 1000 μM
Protocol: The cell viability was assessed using a 3-(4,5-dimethylthiazol-2-yl)-2, 5-diphenyltetrazolium bromide (MTT) assay (Sigma-Aldrich, St. Louis, Mo., USA), and trypan blue dye exclusion method (TBDE). For the MTT assay, U87MG cells were cultured in a 96 well-plate at a density of 5×10^3 per well and incubated at 37° C. under 5% CO2 for 24 h. Then, the cells were treated with different concentrations of F16 (0.1-100 μM) and TMZ (0.1-500 μM) for 24 h. At the end of treatment, the old medium was aspirated, and 10 μL of MTT (0.5 mg/mL in PBS) was added to each well and the cells were incubated at 37° C. for an additional 3 h. Finally, the MTT solution was removed, and 100 μL of dimethyl sulfoxide (DMSO) was added to each well. The plate was gently rotated on an orbital shaker for 10 min to completely dissolve the precipitation and the absorbance was measured at 570 nm using Microplate Reader (VersaMax, Molecular Devices, Sunnyvale, Calif., USA). For the TBDE method, U87MG cells were cultured in a 24 well-plate at a density of 5×10^4 per well and incubated at 37° C. under 5% CO2 for 48 h. Then, the cells were treated with different concentrations of F16 (0.1-100 μM) and TMZ (10-1000 μM). After 24, 48, and 72 h of treatments, an aliquot (50 μL) of the cell suspension from each treatment was mixed with 1:1 (v/v) volume of 0.4% trypan blue. The viable cells were counted with a Bio-Rad TC20™ Automated Cell Counter (Hercules, Calif., USA)

U87MG cells [3] = assay: Trans-well migration assay; type: cell-based, human; conditions: 24 h; F16 20 μM, TMZ 400 μM
Protocol: The migration ability of U87MG cell was determined using both scratch and trans-well assays. For the scratch assay, monolayer of U87MG cells was grown on 6-well plates close to 80% confluency. Using a sterile 200 μL tip, a single straight line scratch was made in each well. The wells were washed with phosphate-buffered saline (PBS) and refilled with growth medium containing various concentrations of F16 (0.1-20 μM) and TMZ (10-400 μM). The images were captured using Leica microscope at 12 h and 24 h post-scratch. For the trans-well migration assay, 6.5 mm trans-well plates polycarbonate membrane inserts (Corning, N.Y., USA) with 8 μm pore size were used. After an initial equilibrium period, 5×10^4 cells suspended in 100 μL basal medium without FBS were added to the upper compartment of the trans-well inserts and exposed to different concentrations of F16 (0.1-20 μM) and TMZ (10-400 μM). The lower chamber was filled with 600 μL of EMEM medium supplemented with 10% fetal bovine serum. Then, trans-well plates were incubated at 37° C. under 5% CO2 for 24 h to allow for the migration of U87MG cells across the porous membrane. […] Five different fields per well were captured with a Leica microscope (DMI 3000 B; IL, USA) using 10× magnification, and the number of cells that penetrated the membrane was counted using ImageJ software (NIH Image, Bethesda, Md., USA).

[4] = system: U87MG derived xenograft tumor; type: in vivo
Protocol: Lauderdale, Fla. Animals were subcutaneously injected into the right flank of each mouse, with 4×10^6 of U87MG glioblastoma cancer cells suspended in 100 μL of PBS mixed with Matrigel (BD Biosciences). […] The experimental mice were treated once in every 2 days for the period of 16 days. At the end of the treatment, the tumors were isolated and then the tumor length (L) and width (W) were measured to calculate the tumor volume (TV) according to the formula: TV=1/2×(L×W^2). To determine the tumor inhibitory effects of F16 and TMZ treatments, the inhibition ratio (IR) was calculated using the formula: […]
At the end of the treatment, all the animals in the control and experimental groups were sacrificed and tumors were excised and weighed.

[5] = rats and monkeys; cited from earlier work
[6] = system: Glioblastoma multiforme (GBM); conditions: human, in vivo; cited from earlier work
[7] = Tolerability / toxicity study; conditions: i.p. twice a week for 4 weeks
Protocol: For tolerability study, 8-10 weeks old male BALB/c mice weighing approximately 25 g were used (Charles Rivers, US). […] All animals were housed in pathogen-free ventilated cages under environmentally controlled conditions of humidity and temperature (22° C.; 12:12 h light-dark cycle) with free access to pathogen-free food and water. All animal care and experiments were performed in accordance with the guidelines and approval of the Institutional Animal Care and Use Committee (IACUC) of Nova Southeastern University (NSU), Ft. Lauderdale, Fla.
TMZ (50 mg/kg) was dissolved in 10% DMSO+90% phosphate-buffered saline (PBS). All drugs were prepared fresh before the scheduled injection [21]. The total volume of injection was 100 μL/mouse for all experiments which was administered intraperitoneally.
For tolerability studies, BALB/c mice were randomly assigned to 4 different treatment groups (FIG. 15: Table 1). At the end of the treatment period, blood samples from all the mice were collected and sent to the Department of Comparative Pathology at the University of Miami (City of Miami, Fla.) to analyze the hematological and biochemical parameters.
Mice injected with KP were used as controls. All drugs were administered as i.p. injections twice a week for 4 weeks. Independent toxicity evaluations, serum biochemistry, post-mortem gross examination, and histopathological examination of major organs were performed at Comparative Pathology Department at the University of Miami, Fla.

[8] = system: U87MG-luc intracranial xenograft; assay: Intracranial glioblastoma xenograft model with bioluminescence imaging
Protocol: For tolerability study, 8-10 weeks old male BALB/c mice weighing approximately 25 g were used (Charles Rivers, US). For intracranial study, 8-10 weeks old female athymic nude (Nu/Nu) mice weighing approximately 25 g were used (Taconic Biosciences, US). All animals were housed in pathogen-free ventilated cages under environmentally controlled conditions of humidity and temperature (22° C.; 12:12 h light-dark cycle) with free access to pathogen-free food and water.
F16 (100 mg/kg) was dissolved in a 10% DMSO+90% KolliphorEL (KP). TMZ (50 mg/kg) was dissolved in 10% DMSO+90% phosphate-buffered saline (PBS). All drugs were prepared fresh before the scheduled injection [21]. The total volume of injection was 100 μL/mouse for all experiments which was administered intraperitoneally.
For intracranial study, the glioblastoma xenograft model was developed using athymic nude (Nu/Nu) mice. Briefly, mice were placed under general anesthesia (intraperitoneal injection of 100 mg/kg Ketamine and 10 mg/kg Xylazine) and were positioned in the stereotaxic device. A median incision of ˜1 cm was made, and a burr hole was drilled into the right striatum of the skull (1.0 mm forward and 2.0 mm lateral to the bregma). Subsequently, U87MG cells expressing the luc reporter gene (2×10^5 cells in 3 μL PBS) was injected using a 10-μl Hamilton syringe at the rate of 1 μL/min at a depth of 3 mm. Once injection was completed, the needle was kept in place for 2 minutes and then slowly removed, and the hole was sealed with a sterile bone wax. The incision was closed, and triple antibiotic ointment was applied. One week after tumor cell transplantation, mice were divided randomly into five groups (n=5 in each group): 1) control treated with DMSO in PBS, 2) control treated with DMSO in KP, 3) treated with F16 (100 mg/kg), 4) treated with temozolomide (50 mg/kg) and 5) treated with F16 (100 mg/kg) and 3 h later treated with temozolomide (50 mg/kg). One more group with no tumor implant was added to the study as a negative control (n=5). The experimental mice were treated twice per week for 3 weeks.
Bioluminescence imaging (BLI) was used to assess and confirm tumor growth in intracranial xenograft. BLI was carried out in vivo using the Bruker Xtreme which is a sensitive optical X-ray machine designed for preclinical in vivo study based on BLI concept. Briefly, mice were injected intraperitoneally with D-luciferin (Sigma) dissolved in saline at a dose of 150 mg/kg body weight. Immediately after the injection, mice were anesthetized by isoflurane and series of bioluminescent images was acquired with 3-minutes acquisition intervals for approximately 20 minutes, by which time, the luciferin had been washed out. The image with the peak BLI intensity was used for quantification in units of photon counts.

Bevacizumab [BVZ]
overall survival (OS) (recurrent GBM; patients with (recurrent) GBM): no improvement; also recorded: failed to improve
progression free survival (PFS) (recurrent GBM; recurrent GBM): did improve

Cn1nnc2c(C(N)=O)ncn2c1=O [TMZ, Temozolomide, reference compound]
IC50 (U87MG cells [1]): 430 µM
maximum percentage of U87MG cells death (U87MG cells [2]; 24 h): 68%
maximum percentage of U87MG cells death (U87MG cells [2]; 48 h): 95%
maximum percentage of U87MG cells death (U87MG cells [2]; 72 h): 82%
U87MG cells trapped in the upper compartment as compared to untreated cells (U87MG cells [3]): About 80%
suppression of tumor growth ([4]; i.p., once every 2 days for 16 days, F16 100 mg/kg, TMZ 50 mg/kg, combination of both): 53%
signs of toxicity / tolerability ([4]; mouse, in vivo): symptoms of toxicity
levels of TMZ in the brain as % of the plasma concentration [5]: 30-40%
TMZ treated patients who develop significant toxicity [6]: 15-20%
ALT level (liver function) [7]: Significant elevation; also recorded: significantly elevating
BUN levels (kidney function) [7]: No significant changes
RBC [7]: slight increase
WBC counts [7]: significant increase
hematocrit [7]: slight increase
body weight ([8]; compared to mice treated with vehicles (PBS/KP)): No significant change
tumor inhibition ([8]; intracranial xenograft model): 99%
condition of excised brains ([8]; mouse, in vivo): fragile and damaged
mice that lived until day 50 post implantation ([8]; mouse, in vivo): 60%
median survival ([8]; vehicles-PBS 34 days, vehicles-KP 36 days): 47 days
